Reference: patent US20230141533A1, “LACTONE COMPOUND” (FUJIFILM Corporation, priority 2021, published 2023)
Several values for one entry are separate records, joined by “and”; a condition that tells them apart may be missing. Equal values may be shown once.

Experiments:
[1] = Water stability under applied voltage (square wave voltammetry, oxidation potential); format: physicochemical; details: for Oxidation potential: SWV, 0.5 mM in THF:water=90:10, gold electrode, Ag wire reference, ferrocene reference substance, None = no oxidation potential, more stable than 1.3 V (THF oxidized); for water stability under applied voltage (in words): judged from whether an oxidation potential is observed
Description: Water Stability Under Applied Voltage
Water stability against voltage of each of the compounds (1) to (9) synthesized in Examples and Comparative Examples was evaluated by the measurement shown below.
Measurement: square wave voltammetry (SWV)
Action electrode: gold electrode
Counter electrode: platinum black electrode
Reference electrode: Ag wire
Supporting electrolyte: tetrabutylammonium hexafluorophosphate (manufactured by FUJIFILM Wako Pure Chemical Corporation)
Reference substance: ferrocene
The compound (1) was adjusted to a concentration of 0.5 mM using a mixed solvent of THF:water=90:10, and nitrogen bubbling was carried out for 10 minutes to produce a measurement sample.
Next, a measurement was performed under the above-described analysis conditions to observe an oxidation potential.
Oxidation potentials of the compounds (2) to (9) were measured under the same conditions.

[2] = Water stability over time without applied voltage (HPLC residual rate); format: physicochemical; details: for Residual rate (%): aqueous mixed solution with NIKKOL HCO-40, allowed to stand at 25° C. for 24 hours, HPLC area after 24 hours ÷ area immediately after preparation × 100; for water stability over time (in words): without applied voltage, 25° C., 24 hours, judged from residual rate
Description: Water Stability Over Time without Applied Voltage
To 1.0 part by mass of each of the compounds (1) to (9) synthesized in Examples and Comparative Examples, 1000 parts by mass of NIKKOL HCO-40 (Nikko Chemicals Co., Ltd.) and 10000 parts by mass of acetone were mixed.
Next, after removing the acetone using an evaporator at a temperature of 40° C., 10000 parts of water was added thereto to prepare a uniform mixed solution 1. The mixed solution 1 was allowed to stand at 25° C. for 24 hours.
Immediately after the preparation of the mixed solution 1 and after allowing the mixed solution 1 to stand for 24 hours, an HPLC measurement was carried out under the following analysis conditions, and a residual rate in the water stability test over time was calculated using the following expression.
(Area value after standing for 24 hours)÷(Area value immediately after preparation)×100=Residual rate (%)
SCL-10AVP manufactured by Shimadzu Corporation
Eluent: single eluent prepared by adding 0.2% by volume of each of acetic acid and triethylamine to a mixed solution obtained by mixing tetrahydrofuran (THF) and water at a ratio of 60:40

SMILES: Cc1cc(C)c(C2C(=O)Oc3c2cc(C(C)(C)C)cc3C(C)(C)C)c(C)c1 (stereo not drawn) [Compound (1)]
- Oxidation potential [1]: None
- Residual rate (%) [2]: 100%

SMILES: COc1cc(OC)c(C2C(=O)Oc3c2cc(C(C)(C)C)cc3C(C)(C)C)c(OC)c1 (stereo not drawn) [Compound (2)]
- Oxidation potential [1]: None
- Residual rate (%) [2]: 95%

SMILES: Cc1cc(C)c(C2C(=O)Oc3c2cc(C)cc3C(C)(C)C)c(C)c1 (stereo not drawn) [Compound (3)]
- Oxidation potential [1]: None
- Residual rate (%) [2]: 90%

SMILES: COc1cc(OC)c(C2C(=O)Oc3c2cc(C)cc3C(C)(C)C)c(OC)c1 (stereo not drawn) [Compound (4)]
- Oxidation potential [1]: None
- Residual rate (%) [2]: 95%

SMILES: Cc1ccc(C2C(=O)Oc3c2cc(C(C)(C)C)cc3C(C)(C)C)cc1C (stereo not drawn) [Compound (5)]
- Oxidation potential [1]: None
- Residual rate (%) [2]: 0%
- water stability over time (in words) [2]: deteriorated

SMILES: Cc1c(C)c(C)c(C2C(=O)Oc3c2cc(C(C)(C)C)cc3C(C)(C)C)c(C)c1C (stereo not drawn) [Compound (6)]
- Oxidation potential [1]: None
- Residual rate (%) [2]: 10%
- water stability over time (in words) [2]: still deteriorated

SMILES: CCCCCCCCOc1ccc(C2C(=O)Oc3c2cc(C(C)(C)C)cc3C(C)(C)C)cc1 (stereo not drawn) [Compound (7)]
- Oxidation potential [1]: None
- Residual rate (%) [2]: 0%
- water stability over time (in words) [2]: deteriorated

SMILES: Cc1c(C(C)(C)C)cc(C(C)(C)C)c(O)c1C1C(=O)Oc2c1cc(C(C)(C)C)cc2C(C)(C)C (stereo not drawn) [Compound (8)]
- Oxidation potential [1]: 0.65 V and 1.00 V and 1.15 V
- water stability under applied voltage (in words) [1]: low
- Residual rate (%) [2]: 0%

SMILES: CC(C)(C)c1cc(C2C(=O)Oc3c2cc(C(C)(C)C)cc3C(C)(C)C)c(O)c(C(C)(C)C)c1 (stereo not drawn) [Compound (9)]
- water stability under applied voltage (in words) [1]: low
